For assay [1], the target named is T1, Adenosylhomocysteinase (Homo sapiens, UniProt P23526). The assay can be described thus: Inhibition of human placental AdoHcy hydrolase.
Target sequence in this assay (P23526 whole entry): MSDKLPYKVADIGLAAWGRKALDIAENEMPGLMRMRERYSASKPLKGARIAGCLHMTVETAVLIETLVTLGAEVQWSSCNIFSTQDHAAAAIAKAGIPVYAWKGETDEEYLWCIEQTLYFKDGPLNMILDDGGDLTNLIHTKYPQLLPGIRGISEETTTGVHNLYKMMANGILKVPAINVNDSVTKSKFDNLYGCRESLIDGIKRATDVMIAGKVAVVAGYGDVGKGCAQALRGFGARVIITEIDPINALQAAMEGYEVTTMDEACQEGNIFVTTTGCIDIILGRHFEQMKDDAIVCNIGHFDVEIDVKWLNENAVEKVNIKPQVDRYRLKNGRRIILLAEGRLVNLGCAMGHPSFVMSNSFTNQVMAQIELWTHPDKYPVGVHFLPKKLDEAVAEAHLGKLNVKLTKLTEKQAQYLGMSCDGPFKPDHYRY
Assay [2] concerns the target T1, Adenosylhomocysteinase. Description: Inactivation of human placental AdoHcy hydrolase.
Target sequence in this assay (P23526 2-432 limits assumed): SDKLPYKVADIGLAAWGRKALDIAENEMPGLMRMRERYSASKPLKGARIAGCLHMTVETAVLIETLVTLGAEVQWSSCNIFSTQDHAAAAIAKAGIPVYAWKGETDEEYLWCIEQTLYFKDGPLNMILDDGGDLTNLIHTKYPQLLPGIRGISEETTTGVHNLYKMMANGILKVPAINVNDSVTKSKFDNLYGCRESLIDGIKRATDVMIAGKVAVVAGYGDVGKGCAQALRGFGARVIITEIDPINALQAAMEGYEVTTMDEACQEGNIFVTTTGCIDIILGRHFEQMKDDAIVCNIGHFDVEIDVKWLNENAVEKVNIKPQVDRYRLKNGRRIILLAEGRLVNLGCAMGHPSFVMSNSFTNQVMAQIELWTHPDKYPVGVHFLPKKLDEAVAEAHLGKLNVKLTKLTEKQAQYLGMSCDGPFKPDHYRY

As a reminder, the Ki is a dissociation constant, usually derived from enzyme kinetics or from competition with a known ligand.

For `Nc1ncnc2c1ncn2C1O[C@H](CC(=O)OCCF)C(O)[C@H]1O` (single isomer, unassigned), the Ki in assay [1] was 75 µM. In assay [2], this compound came in with a K inact of 0.19 min⁻¹.
The matching figures for `Nc1ncnc2c1ncn2C1O[C@H](CC(=O)OC2CC2(Cl)Cl)C(O)[C@H]1O` (single isomer, unassigned): 750 µM and 0.09 min⁻¹.
The matching figures for `Nc1ncnc2c1ncn2C1O[C@H](CC(=O)OCCCl)C(O)[C@H]1O` (single isomer, unassigned): 302 µM and 0.43 min⁻¹.
In assay [1], `Nc1ncnc2c1ncn2C1O[C@H](CC(=O)OC2CC2(F)F)C(O)[C@H]1O` (single isomer, unassigned) yielded a Ki of 17 µM. The K inact in assay [2] turned out to be 0.008 min⁻¹.

The values above are taken from ChEMBL document CHEMBL1137060, “Inactivation of S-adenosylhomocysteine hydrolase with haloethyl and dihalocyclopropyl esters derived from homoadenosine-6'-carboxylic acid” (Bioorg Med Chem Lett, 2004).
